# Measurements published in patent US20260240801A1, “COMPOSITIONS FOR TREATING PARKINSON’S DISEASE AND QUALITATIVE ASSESSMENT THEREOF” (InTrance Medical Systems Inc., priority 2023, published 2026).
# Tests used:
# [1] = Stability study of Compound 1 (E920) on storage: water content by Karl Fischer; assay type: physicochemical
# Experimental: (§1) Compound 1 purity was determined by HPLC at two wavelengths 220 nm and 280 nm. Identification of Compound 1 was carried out by IR and NMR methods (^1H NMR, ^13C NMR). The residual solvents methanol and dichloromethane (DCM) were determined by gas chromatography (GC). Residual water content was determined by Karl Fisher analysis. Thermogravimetric analysis (TGA) of Compound 1 was also carried out with hold time of 10 minutes at final temperature of 105° C.
# (§2) The stability profile of Compound 1 (Eurofins CDMO Alphora Inc. code: E920) was being evaluated over a period of 6 months under Long Term storage condition of <−20° C. and 6 months under accelerated condition of 25±2° C./60%±5% RH; and at intermediate storage conditions of 5±3° C. Additional samples are stored at each storage conditions to cover the stability studies up to 12 months, after 6 months satisfactory stability results. Attributes being tested include: description of composition, purity by HPLC, identification by HPLC and water content by Karl Fischer (KF) Method. This study is conducted in compliance with ICH Q1A (R2) and Alphora Standard Operating Procedure SOP LC027.
# (§3) The stability profile of Compound 1 (Eurofins CDMO Alphora Inc. code: E920) was being evaluated over a period of up to 12 months under Long Term storage condition of <−20° C. and up to 12 months under accelerated condition of 25±2° C./60%±5% RH; and store only at intermediate storage conditions of 5±3° C. Attributes being tested include: description of composition, purity by HPLC, identification by HPLC and water content by Karl Fischer (KF) Method. This study is conducted in compliance with ICH Q1A (R2) and Alphora Standard Operating Procedure SOP LC027.
# [2] = Stability study of Compound 1 (E920) on storage: purity by HPLC; assay type: physicochemical
# Experimental: as §1
# • Detector: UV/Vis or Diode Array Detector • Wavelength: Signal A: 280 nm, Bandwidth: 4 nm, Reference: OFF • Signal B: 220 nm, Bandwidth: 4 nm, Reference: OFF • Column: SunFire C18 Column (150×4.6 mm, 3.5 um) • Mobile Phase A: 0.06% TFA in H2O • Mobile Phase B: 0.04% TFA in (MeOH:H2O, 80:20)
# • Autosampler Temperature: 6° C. • Column Temperature: 40° C. • Flow Rate: 1.0 mL/min • Injection Volume: 5 μL • Run Time: 30 min
# • Accurately weigh approximately 10.0 mg of test sample into a 20 mL volumetric flask. • Dilute to volume with diluent and mix well. (0.5 mg/mL).
# • Integrate all peaks≥0.05% a/a, not present in the blank solution. • ECA—Analytical Method—E920H2—for standard qualification
# as §2, §3
smiles,measurement,setting,value
"C[C@@](Cc1ccc(O)c(O)c1)(N/N=C/c1cc(O)c(O)c([N+](=O)[O-])c1)C(=O)O [Compound 1, (2s)-2-[(E)-2-[(3,4-dihydroxy-5-nitrophenyl)methylidene]hydrazin-1-yl]-3-(3,4-dihydroxyphenyl)-2-methylpropanoic acid]",% residual water content by KF,"[1]; 25° C./60% RH, 1 M",1.63%
same,% residual water content by KF,"[1]; 25° C./60% RH, 1 M (12-month study)",1.63%
same,% residual water content by KF,"[1]; 25° C./60% RH, 3 M",2.05%
same,% residual water content by KF,"[1]; 25° C./60% RH, 3 M (12-month study)",2.05%
same,% residual water content by KF,"[1]; 25° C./60% RH, 6 M",3.55%
same,% residual water content by KF,"[1]; 25° C./60% RH, 12 M",4.02%
same,% residual water content by KF,[1]; Initial,1.51%
same,% residual water content by KF,[1]; Initial (12-month study),1.51%
same,% residual water content by KF,"[1]; −20° C., 1 M",1.67%
same,% residual water content by KF,"[1]; −20° C., 1 M (12-month study)",1.67%
same,% residual water content by KF,"[1]; −20° C., 3 M",1.96%
same,% residual water content by KF,"[1]; −20° C., 3 M (12-month study)",1.96%
same,% residual water content by KF,"[1]; −20° C., 6 M",3.35%
same,% residual water content by KF,"[1]; −20° C., 12 M",4.08%
same,% Purity at 220 nm by HPLC,"[2]; 25° C./60% RH, 1 M",95.7%
same,% Purity at 280 nm by HPLC,"[2]; 25° C./60% RH, 1 M",96.2%
same,% a/a Purity at 220 nm by HPLC,"[2]; 25° C./60% RH, 1 M",95.7 % a/a
same,% a/a Purity at 280 nm by HPLC,"[2]; 25° C./60% RH, 1 M",96.2 % a/a
same,% Purity at 220 nm by HPLC,"[2]; 25° C./60% RH, 3 M",93.9%
same,% Purity at 280 nm by HPLC,"[2]; 25° C./60% RH, 3 M",94.9%
same,% a/a Purity at 220 nm by HPLC,"[2]; 25° C./60% RH, 3 M",93.9 % a/a
same,% a/a Purity at 280 nm by HPLC,"[2]; 25° C./60% RH, 3 M",94.9 % a/a
same,% a/a Purity at 220 nm by HPLC,"[2]; 25° C./60% RH, 6 M",94.8 % a/a
same,% a/a Purity at 280 nm by HPLC,"[2]; 25° C./60% RH, 6 M",95.3 % a/a
same,% a/a Purity at 220 nm by HPLC,"[2]; 25° C./60% RH, 12 M",93.2 % a/a
same,% a/a Purity at 280 nm by HPLC,"[2]; 25° C./60% RH, 12 M",95.1 % a/a
same,% Purity at 220 nm by HPLC,[2]; Initial,95.4%
same,% Purity at 280 nm by HPLC,[2]; Initial,96.1%
same,% a/a Purity at 220 nm by HPLC,[2]; Initial (12-month study),95.4 % a/a
same,% a/a Purity at 280 nm by HPLC,[2]; Initial (12-month study),96.1 % a/a
same,Three-month stability,[2]; −20° C. and 25° C./60% RH,satisfactory
same,Twelve-month stability,[2]; −20° C. and 25° C./60% RH,satisfactory
same,% Purity at 220 nm by HPLC,"[2]; −20° C., 1 M",95.8%
same,% Purity at 280 nm by HPLC,"[2]; −20° C., 1 M",96.0%
same,% a/a Purity at 220 nm by HPLC,"[2]; −20° C., 1 M",95.8 % a/a
same,% a/a Purity at 280 nm by HPLC,"[2]; −20° C., 1 M",96.0 % a/a
same,% Purity at 220 nm by HPLC,"[2]; −20° C., 3 M",94.3%
same,% Purity at 280 nm by HPLC,"[2]; −20° C., 3 M",95.2%
same,% a/a Purity at 220 nm by HPLC,"[2]; −20° C., 3 M",94.3 % a/a
same,% a/a Purity at 280 nm by HPLC,"[2]; −20° C., 3 M",95.2 % a/a
same,% a/a Purity at 220 nm by HPLC,"[2]; −20° C., 6 M",96.5% a/a
same,% a/a Purity at 280 nm by HPLC,"[2]; −20° C., 6 M",96.1 % a/a
same,% a/a Purity at 220 nm by HPLC,"[2]; −20° C., 12 M",95.9 % a/a
same,% a/a Purity at 280 nm by HPLC,"[2]; −20° C., 12 M",96.6 % a/a
